# In patent publication US6815214B2, “Pharmaceutical uses and synthesis of diketopiperazines” (Celltech R & D, Inc., priority 2000, dated 2004):
# Like-named read-outs stand apart in the source and are kept apart here.
# Key:
# [1] = target: T1, CXCR2 (Homo sapiens, UniProt P25025); assay: CXCR2 radioligand binding assay with 125I labeled IL-8 (Panlabs); conditions: for inhibition at 20 µM: letter following "II", read-out: Biological Activity II (CXCR2): extent of inhibition; for IC50: read-out: IC50 (after II, CXCR2)
# T1 construct: host or cells: CHO cells
# T1 sequence (P25025 1-360): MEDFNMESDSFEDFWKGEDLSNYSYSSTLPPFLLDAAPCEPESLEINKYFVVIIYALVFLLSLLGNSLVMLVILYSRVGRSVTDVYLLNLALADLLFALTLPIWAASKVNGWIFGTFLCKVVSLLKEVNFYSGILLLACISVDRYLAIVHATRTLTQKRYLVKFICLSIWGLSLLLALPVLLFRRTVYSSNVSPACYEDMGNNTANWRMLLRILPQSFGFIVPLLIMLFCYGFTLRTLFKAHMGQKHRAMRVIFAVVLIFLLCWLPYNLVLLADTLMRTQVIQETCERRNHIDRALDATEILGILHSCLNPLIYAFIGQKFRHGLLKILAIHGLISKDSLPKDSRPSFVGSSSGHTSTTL
# Source text: This assay is a radioligand binding assay in human recombinant CHO cells with ^125I labeled IL-8 as ligand as described in The Journal of Biological Chemistry (Ahuja, S. K.; Murphy, P. M;. J. Biol. Chem. 1996, 271, 20545).
# [2] = test system: A549 cells; assay: Inhibition of TNF-α-induced apoptosis in A549 cells (crystal violet); format: cell-based; conditions: letter following "III"; inhibition at 20 μM
# Procedure: The protocol used for determining inhibition of apoptosis in A549 cells was adopted from a system previously described (K. Last-Barney et al, J. of Immunology, 1988, 141, 527-530). Briefly, 10^5 cells in 200 μL 10% FBS/RPMI antibiotic containing culture medium were plated into 96 well round bottom culture plates and allowed to adhere for 6 hours at 37° C. in a 5% CO2 atmosphere. The media was removed and 100 μL of RPMI+1 μg/mL actinomycin-D was added to each well, followed by 100 μL of 20 μM solution of compound in 1% DMSO. This was incubated for 1 hour. […] The media was aspirated from the plates and 100 μL of 0.5% crystal violet in 20% methanol was added. After 10 minutes the plates were rinsed with water to remove excess stain, air dried, and read on a Spectramax spectrophotometer at a wavelength of 590 nm.
inhibition at 20 µM [1] [%],IC50 ([1]; unit μm [sic]) [µM],IC50 [1] [µM],SMILES,Biological Activity III (apoptosis): extent of inhibition [2]
> 50,15,–,COc1cc(OC)c(CNC(=O)Cc2ccc(CN3C(=O)[C@@H]4C[C@H](NC(=O)OCC5c6ccccc6-c6ccccc65)CN4C(=O)[C@@H]3CC(=O)O)cc2)c(OC)c1,–
> 50,–,25,COC(=O)C[C@H]1C(=O)N2C[C@@H](NC(=O)c3cnc4ccccc4c3)C[C@H]2C(=O)N1Cc1ccc(CC(=O)NCc2c(OC)cc(OC)cc2OC)cc1,A (A refers to >50% inhibition at 20 μM)
